Here are results for 13 molecules from US8932853B2, “Method for manufacturing pancreatic-hormone-producing cells” (Takeda Pharmaceutical Company Limited, priority 2009, dated 2015).

Type in all cases: cell-based
Assay [1] relates to human iPS cells (253G1 strain). Description: quantitative RT-PCR of BRACHYURY and SOX17 during induction of human iPS cells into endodermal cells, steps (1)-(2). The settings on record: added with activin A (100 ng/ml) only the first day, CHIR99021 3 μM, Wnt3a 25 ng/ml, relative to GAPDH. The text has this: As a first stage for induction of differentiation of human iPS cells (iPS cells obtained by introducing Oct3/4 gene, Klf4 gene and Sox2 gene: see Nat Biotechnol 2008; 26: 101-106) into pancreas cells (particularly pancreatic hormone-producing cells), differentiation of human iPS cells was induced into endodermal cells by using a 96 well plate.
As the human iPS cells, 253G1 strain (iPS cell line produced by expressing OCT4/SOX2/KLF4 with retrovirus; Nature Biotechnology 26, 101-106) was used. Maintenance culture of the iPS cells in an undifferentiated state was performed using mitomycin-treated mouse fibroblast (MEFs) seeded on a gelatin-coated plate as feeder cells, and a medium for primate ES cells (ReproCELL Incorporated) added with 4 ng/ml bFGF (PeproTech EC) and 0.5× Penicillin-streptomycin (SIGMA) as a medium at 37° C. under 5% CO2. The medium was changed every day, the cell mass was detached every 4-5 days using a cell detachment solution for primate ES cell (ReproCELL Incorporated), and passaged by seeding on new feeder cells.
As a preculture for differentiation induction into endodermal cells, undifferentiated iPS cells were seeded in a 96 well plate. First, iPS cells maintained in a cell mass was treated with 0.25% trypsin-1 mM EDTA solution (GIBCO) and dissociated until they became single cells. Then, iPS cells dispersed in a medium were seeded in a 96 well plate at a density of 2×10^4 cells per well and cultured at 37° C. under 5% CO2 for 1 day. The 96 well plate used had been gelatin-coated, seeded with 5×10^3 MEFs and cultured at 37° C. under 5% CO2 for 5 hr. In addition, as a culture medium for seeding, a medium for primate ES cells added with 10 μM Y-27632 (Wako Pure Chemical Industries, Ltd.) was used. One day after seeding, the medium was changed to a medium for primate ES cells without Y-27632, and the cells were further cultured for 2 days until they became confluent.
Differentiation of iPS cells into endodermal cells was induced according to the following method. First, the confluent cells were washed with RPMI medium (GIBCO), RPMI medium containing various differentiation-inducing factors and 2% fetal bovine serum (FBS) was added, and the mixture was cultured for 1 day. […]
To examine variation in the expression of endoderm differentiation marker when cultured under each condition, differentiation-induced cells were recovered over time, and the total RNA fractions were purified using RNeasy96 (Qiagen). Using a PrimeScript RT reagent kit (Takara Bio Inc.), cDNA was synthesized, and quantitative RT-PCR was performed, whereby the gene expression level of BRACHYURY, which is a primitive streak marker, and SOX17, which is an endodermal marker, was measured.

Assay [2] has as its system human iPS cells (253G1 strain). Briefly: immunofluorescent staining with anti-SOX17 antibody on day 3 of differentiation induction. On the procedure: To examine expression of SOX17 protein after culture for 3 days, immunofluorescent staining using an anti-SOX17 antibody was performed. After culture up to day 3 in the same manner as in FIG. 1, the cells were fixed with 2% para-formaldehyde (PFA) for 10 min and further for 20 min with 4% PFA at room temperature.
Whether even use of a GSK3 inhibitor other than CHIR99021 in step (1) enables differentiation induction into endodermal cells was examined. The differentiation of human iPS cells into endodermal cells was induced according to the following method. […] Thereafter, the cells were washed with RPMI medium (GIBCO), and cultured for 1 day in RPMI medium containing various GSK3 inhibitors, activin A (100 ng/ml) and 2% fetal bovine serum (FBS). […] As a control, the cells were treated with a medium added only with activin A and free of GSK3 inhibitor. After culture for 1 day, the cells were washed with RPMI medium, and further cultured for 2 days in RPMI medium added with 2% FBS and 100 ng/ml activin A.
To examine expression of SOX17 protein on day 3 of differentiation induction, immunofluorescent staining using an anti-SOX17 antibody was performed. 4% PFA was added to the cells on day 3 of culture under each condition, the mixture was incubated at room temperature for 30 min to fix the cells.

Assay [3] has as its system endodermal cells induced from human iPS cells. The settings on record: added simultaneously with dorsomorphin (1 μM) and retinoic acid (2 μM) day 3 to day 10; SB431542 5 μM, ALK5 inhibitor II 2 μM, A-83-01 0.2 μM, TGFβRI kinase inhibitor VIII 0.2 μM; vs dorsomorphin and retinoic acid alone. How it is done:
The dorsomorphin is an inhibitor of AMP-activated protein kinase (AMPK), and an inhibitor of ALK2, ALK3 and ALK6 from among activin receptor-like kinases (ALK). In addition, SB431542 is an inhibitor of ALK4, ALK5 and ALK7 from among ALKs.
As a control, the medium was changed to one added with dorsomorphin and retinoic acid alone (Ctrl). […] After the culture, the expression level of NGN3, which is progenitor cells of pancreatic hormone-producing cells marker, was measured in the same manner as in Example 1.

Assay [4] concerns progenitor cells of pancreatic hormone-producing cells induced from human iPS cells. Description: immunofluorescent staining with anti-insulin antibody after step (4). Particulars: each added alone in step (4), day 10 to day 21; forskolin 10 μM, dibutyl cAMP 500 μM, IBMX 200 μM, ALK5 inhibitor II 5 μM, A-83-01 0.5 μM, SB431542 10 μM, TGFβRI kinase inhibitor VIII 2 μM, dexamethasone 10 μM, hydrocortisone 5 μM, betamethasone 2 μM, beclomethasone 1 μM.

The test system of assay [5] is insulin-producing cells differentiated from human iPS cells. Briefly: C-peptide secretion of differentiated insulin-producing cells in response to stimulation (Human C-peptide ELISA). Particulars: 1 hr at 37° C. in buffer containing 2.5 mM glucose; (−)-Bay K8644 2 μM, tolbutamide 100 μM, carbachol 250 μM, IBMX 0.5 mM, KCl 30 mM; relative to 2.5 mM glucose. How it is done:
The medium was changed once on day 7 of induction. […] The medium was changed every 3-4 days. After the culture, the cells were washed with a buffer containing 2.5 mM glucose (NaCl (116 mM), KCl (4.7 mM), KH2PO4 (1.18 mM), MgSO4 (1.18 mM), NaHCO3 (25 mM), CaCl2 (2.52 mM), HEPES (24 mM), 0.1% BSA), a buffer containing 2.5 mM glucose was added and the mixture was cultured at 37° C. for 2 hr. The supernatant was completely removed, and a buffer containing 2.5 mM glucose, a buffer containing 22.5 mM glucose, a buffer containing 2.5 mM glucose and 2 μM (−)-Bay K8644, a buffer containing 2.5 mM glucose and 100 μM tolbutamide, a buffer containing 2.5 mM glucose and 250 μM carbachol, a buffer containing 2.5 mM glucose and 0.5 mM IBMX, and a buffer containing 2.5 mM glucose and 30 mM KCl were respectively added. After culture at 37° C. for 1 hr, the culture supernatant was recovered, and the C-peptide contained in the culture supernatant was measured using Human C-peptide ELISA kit (Mercodia AB).
Background: ELISA stands for enzyme-linked immunosorbent assay.

Entries after “also recorded” stand apart in the source; their conditions may differ.

As for `Cc1c[nH]c(-c2cnc(NCCNc3ccc(C#N)cn3)nc2-c2ccc(Cl)cc2Cl)n1` [CHIR99021, 6-[[2-[[4-(2,4-dichlorophenyl)-5-(4-methyl-1H-imidazol-2-yl)-2-pyrimidinyl]amino]ethyl]amino]nicotinonitrile], the “expression level of SOX17 (endodermal marker)” value in assay [1] (then activin A alone 2 days, days 2-3) is recorded as “increased markedly; also recorded: high value”. Further, in assay [1] (day 1 of differentiation induction), the “expression level of BRACHYURY (primitive streak marker)” value was “transiently increased; also recorded: highest value”. Also, the “ratio of cells expressing SOX17 protein” value in assay [2] (added with activin A (100 ng/ml) for 1 day, then activin A alone 2 days, CHIR99021 3 μM, Wnt3a 25 ng/ml, SB415286 3 μM, SB216763 20 μM) is reported as “highest; also recorded: increased”.
Take `Cc1cccc(-c2[nH]c(C(C)(C)C)nc2-c2ccc3nccnc3c2)n1` [TGFβRI kinase inhibitor VIII, 6-[2-tert-butyl-5-[6-methyl-pyridin-2-yl]-1H-imidazol-4-yl]-quinoxaline]: the “expression level of NGN3” value in assay [3] is “increased remarkably”. Besides, in assay [4], the “positive rate of insulin-expressing cells” value (shortened to “positive rate”) was “remarkably increased; also recorded: induced differentiation into insulin-positive cells with high efficiency”.
In the case of `CC(C)Cn1c(=O)n(C)c(=O)c2[nH]cnc21` [IBMX, 3-isobutyl-1-methylxanthine], the C-peptide secretion level entry in assay [5] is listed as “increased”. Moreover, in assay [4], the “positive rate” value is “remarkably increased; also recorded: induced differentiation into insulin-positive cells with high efficiency”.
In the case of `C[C@H]1C[C@H]2[C@@H]3CCC4=CC(=O)C=C[C@]4(C)[C@@]3(Cl)[C@@H](O)C[C@]2(C)[C@@]1(O)C(=O)CO` [beclomethasone], in assay [4], the “positive rate” value is “remarkably increased; also recorded: induced differentiation into insulin-positive cells with high efficiency”.
Consider `NC(=O)c1ccc(-c2nc(-c3ccc4c(c3)OCO4)c(-c3ccccn3)[nH]2)cc1` [SB431542, 4-[4-(1,3-benzodioxol-5-yl)-5-(2-pyridinyl)-1H-imidazol-2-yl]-benzamide], for which the “expression level of NGN3” value in assay [3] was “increased remarkably”. Moreover, the “positive rate” value in assay [4] is recorded as “remarkably increased; also recorded: induced differentiation into insulin-positive cells with high efficiency”.
With `CCCC(=O)Nc1ncnc2c1ncn2[C@@H]1O[C@@H]2COP(=O)(O)O[C@H]2[C@H]1OC(=O)CCC` [dibutyl cAMP], the “positive rate” value in assay [4] is “remarkably increased; also recorded: induced differentiation into insulin-positive cells with high efficiency”.
Regarding `CCCCNC(=O)NS(=O)(=O)c1ccc(C)cc1` [tolbutamide], the C-peptide secretion level result in assay [5] is recorded as “increased”.
Still for that read-out and setting: the value for `[Cl-].[K+]` [KCl] was “increased”.
For `Cc1cccc(-c2nn(C(=S)Nc3ccccc3)cc2-c2ccnc3ccccc23)n1` [Example A-83-01, 3-[6-methyl-2-pyridinyl]-N-phenyl-4-[4-quinolinyl]-1H-pyrazole-1-carbothioamide], in assay [3], the “expression level of NGN3” value is listed as “increased remarkably”. For the same molecule, in assay [4], the “positive rate” value was “remarkably increased; also recorded: induced differentiation into insulin-positive cells with high efficiency”.
Regarding `C[C@]12CCC(=O)C=C1CC[C@@H]1[C@@H]2[C@@H](O)C[C@@]2(C)[C@H]1CC[C@]2(O)C(=O)CO` [hydrocortisone], the “positive rate” value in assay [4] was “remarkably increased; also recorded: induced differentiation into insulin-positive cells with high efficiency”.
Take `COC(=O)C1=C(C)NC(C)=C([N+](=O)[O-])C1c1ccccc1C(F)(F)F` (single isomer, unassigned; (-)) [(−)-Bay K8644]: in assay [5], the C-peptide secretion level result is “increased”.
Turning to `C[N+](C)(C)CCOC(N)=O` [carbachol], the C-peptide secretion level result in assay [5] was “increased”.

B1: activin A: 24 kD peptidic cell proliferation and differentiation factor belonging to the TGFβ family; activator of activin receptor-like kinase-4,7 (protein, UniProt P08476 311-426, looked up)
Inhibin beta A chain: GLECDGKVNICCKKQFFVSFKDIGWNDWIIAPSGYHANYCEGECPSHIAGTSGSSLSFHSTVINHYRMRGHSPFANLKSCCVPTKLRPMSMLYYDDGQNIIKKDIQNMIVEECGCS
modifications: Inhibin beta A chain
Consider B1, for which the “ratio of cells expressing SOX17 protein” value in assay [2] (activin A (100 ng/ml) alone for 3 days (Comparative Example 1)) is “a part of the cells also expressed SOX17 protein”.
